Consider 36 compounds from ChEMBL document CHEMBL1201862, “PubChem BioAssay data set” (2004).

Experiment [1] has as its system Streptococcus. Description: GAS UMAA2166 growth inhibition – luminescence, BacTiterGlo, counter-screen for streptokinase expression inhibitor project, dose response (AID 1915).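 Further: potency for reduction of bacterial viability or growth.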 The experiment is classed as functional, organism-based. On the technique in general: A counterscreen serves to expose hits that act by an unwanted route or on another target.
For experiment [2], the target named is T1, Streptokinase A (Streptococcus pyogenes serotype M1, UniProt P10520).
T1 sequence (P10520 whole entry): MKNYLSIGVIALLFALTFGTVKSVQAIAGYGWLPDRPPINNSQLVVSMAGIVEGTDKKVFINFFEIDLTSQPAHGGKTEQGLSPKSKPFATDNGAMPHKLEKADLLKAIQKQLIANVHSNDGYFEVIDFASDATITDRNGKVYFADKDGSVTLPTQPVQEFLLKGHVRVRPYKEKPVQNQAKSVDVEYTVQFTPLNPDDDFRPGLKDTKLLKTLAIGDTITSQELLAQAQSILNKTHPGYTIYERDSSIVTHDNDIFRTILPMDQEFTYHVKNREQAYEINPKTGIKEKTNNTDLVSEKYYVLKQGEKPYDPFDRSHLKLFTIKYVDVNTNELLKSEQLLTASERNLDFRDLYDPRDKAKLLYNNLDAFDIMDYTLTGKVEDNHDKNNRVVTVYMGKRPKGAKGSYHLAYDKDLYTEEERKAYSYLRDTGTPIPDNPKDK
Kind of experiment: viability-normalized secreted streptokinase activity reduction – plasminogen activation absorbance, OD405, dose response (AID 1914).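 Further: secreted streptokinase activity via plasminogen activation per viability signal from cell pellet.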 Type of experiment: functional, Streptococcus pyogenes M1 GAS.

The test system of experiment [3] is Streptococcus sp. 'group A'. Kind of experiment: Streptococcus pyogenes SK(-)GAS viability under kanamycin – luminescence, BacTiterGlo, confirmation, counter-screen for streptokinase expression inhibitor project, dose response (AID 1900). The experiment is classed as functional, organism-based.
A short description of experiment [4]: viability of uninfected HEp-2 cells – cell-based, HTS, cytotoxicity control for RSV inhibitor project, dose response (AID 2410). Conditions: human respiratory syncytial virus. Type of experiment: functional.
The target of experiment [5] is T2, Calpain-2 catalytic subunit (Sus scrofa, UniProt P43367).
T2 sequence (P43367 whole entry): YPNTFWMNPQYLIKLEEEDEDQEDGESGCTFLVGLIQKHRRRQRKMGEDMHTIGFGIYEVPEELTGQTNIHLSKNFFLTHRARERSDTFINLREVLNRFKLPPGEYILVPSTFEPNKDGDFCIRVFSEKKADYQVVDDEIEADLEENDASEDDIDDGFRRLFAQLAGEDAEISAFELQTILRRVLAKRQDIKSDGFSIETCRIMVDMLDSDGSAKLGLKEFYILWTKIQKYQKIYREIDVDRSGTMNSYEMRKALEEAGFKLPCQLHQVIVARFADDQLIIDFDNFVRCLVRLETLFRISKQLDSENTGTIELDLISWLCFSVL
Description: m-calpain protease blockers, concentration series – biochemical, fluorogenic peptide substrate, dose response (AID 1420). Type of experiment: functional.

A short description of experiment [6]: luciferase reporter signal suppression in cells – H4 neuroglioma cells, luminescence, dose response (AID 1990). Type of experiment: functional, cell-based. In general terms: In a reporter assay the amount or activity of a reporter protein is the signal.
The nature of experiment [7]: Luminescence Cell-Based Dose Response HTS to Identify Inhibitors of 5'UTR Stem-Loop Driven Prion Protein mRNA Translation in H4 Neuroglioblastoma Cells. [Related pubchem assays: 1827 (Project Summary), 1813 (Primary HTS)]. Type of experiment: functional.
The nature of experiment [8]: alpha-synuclein stem-loop luciferase translation blockers – H4 neuroglioma cells, luminescence, confirmation (AID 1988). The experiment is classed as functional, cell-based.
In experiment [9] the test system is H9c2. Kind of experiment: cells. Type of experiment: functional, cell-based. To be noted: Rattus norvegicus, H9c2, Myocardium.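 Further: confirmatory concentration-response retest of ultra-high-throughput screening hits for modulation of myocardial damage; cell death induced by hydrogen peroxide oxidative stress; compound pretreatment for 60 min then peroxide exposure for 2 h; potency is for protecting the cells against peroxide damage rather than for killing them.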
Experiment [10] has as its target T3, Heat shock factor protein 1 (Mus musculus, UniProt P38532).
T3 sequence (P38532 whole entry): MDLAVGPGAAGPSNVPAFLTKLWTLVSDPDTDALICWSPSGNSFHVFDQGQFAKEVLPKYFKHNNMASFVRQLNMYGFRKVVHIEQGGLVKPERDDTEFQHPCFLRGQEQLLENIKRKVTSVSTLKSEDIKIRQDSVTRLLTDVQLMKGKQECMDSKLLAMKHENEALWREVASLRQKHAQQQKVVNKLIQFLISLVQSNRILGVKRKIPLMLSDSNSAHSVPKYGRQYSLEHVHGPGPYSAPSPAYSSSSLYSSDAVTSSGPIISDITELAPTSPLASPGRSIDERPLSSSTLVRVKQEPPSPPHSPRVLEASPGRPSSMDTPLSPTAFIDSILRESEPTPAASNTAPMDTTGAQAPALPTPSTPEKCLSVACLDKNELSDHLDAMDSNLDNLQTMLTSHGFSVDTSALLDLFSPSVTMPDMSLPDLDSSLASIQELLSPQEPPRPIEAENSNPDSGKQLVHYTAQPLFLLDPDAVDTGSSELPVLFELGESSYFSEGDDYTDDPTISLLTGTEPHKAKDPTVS
Kind of experiment: decrease of HSF1-responsive luciferase luminescence – cell-based, NIH3T3, dose retest, confirmation (AID 2382).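 Further: NIH3T3 fibroblasts with HSF1-driven luciferase reporter stressed by proteasome inhibitor MG132; luminescence from HSF1-driven luciferase expression after 8 hours of MG132 stress.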 The experiment is classed as functional.

Experiment [11] has as its target T4, Corticotropin-releasing factor receptor 2/Corticotropin-releasing factor-binding protein (Homo sapiens, UniProt P24387+Q13324).
T4 sequence (Q13324 whole entry): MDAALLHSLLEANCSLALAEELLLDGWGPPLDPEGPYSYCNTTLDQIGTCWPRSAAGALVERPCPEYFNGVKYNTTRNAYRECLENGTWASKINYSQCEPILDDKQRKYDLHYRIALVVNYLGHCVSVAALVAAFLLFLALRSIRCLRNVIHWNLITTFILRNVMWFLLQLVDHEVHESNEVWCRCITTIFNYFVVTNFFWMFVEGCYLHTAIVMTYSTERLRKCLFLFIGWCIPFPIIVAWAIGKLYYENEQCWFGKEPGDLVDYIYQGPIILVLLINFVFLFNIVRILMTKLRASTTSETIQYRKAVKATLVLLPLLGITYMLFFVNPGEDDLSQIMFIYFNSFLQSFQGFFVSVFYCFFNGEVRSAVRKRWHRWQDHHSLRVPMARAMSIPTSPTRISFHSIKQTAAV
T4 sequence (P24387 whole entry): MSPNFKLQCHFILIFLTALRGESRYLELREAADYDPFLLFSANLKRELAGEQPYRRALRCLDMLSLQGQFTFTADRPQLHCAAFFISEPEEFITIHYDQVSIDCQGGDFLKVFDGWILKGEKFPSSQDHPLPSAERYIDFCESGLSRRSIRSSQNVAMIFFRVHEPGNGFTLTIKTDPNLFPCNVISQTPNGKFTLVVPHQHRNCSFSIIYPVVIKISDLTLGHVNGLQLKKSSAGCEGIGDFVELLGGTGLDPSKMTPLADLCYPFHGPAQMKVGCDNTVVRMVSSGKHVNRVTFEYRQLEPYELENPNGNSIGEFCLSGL
Description: activators of CRF receptor 2 with binding protein – uHTS hits, confirmation (AID 602473). Type of experiment: functional. To be noted: read-out: EC50_Mean.

Experiment [12] has as its target T4, Corticotropin-releasing factor receptor 2/Corticotropin-releasing factor-binding protein. Kind of experiment: Dose Response confirmation of uHTS hits for small molecule antagonists of the CRF-binding protein and CRF-R2 receptor complex. The experiment is classed as functional. To be noted: read-out: IC50_Mean.

Molecules are shown by their SMILES. Activity calls are given as the source filed them. For most assays here, no stated cut-off is given here; in the data, actives have a measured EC50 and inactives only a lower limit.

For the compound `CCC(CO)Nc1ncnc2c1cnn2-c1ccc(OC)cc1` (stereo not drawn), the EC50 in experiment [1], in [2] and in [3] was > 150 µM (not active) each time. In general, CC50 refers to the concentration at which the toxic effect on the cells reaches its halfway point. For `CCC(CC)C1=NN2C(=N)/C(=C\c3c(C)[nH]c4ccccc34)C(=O)N=C2S1`, the EC50 was 53 µM (active) in experiment [1], 18.9 µM (inconclusive) in [2] and 5.71 µM (active) in experiment [3]. The CC50 in [4] was 16.1 µM (active). `Fc1cccc(Cl)c1CSc1ccc(-c2cccnc2)nn1`: the IC50 in experiment [5] is listed as 29.7 µM (not active). Further, the CC50 in experiment [4] was > 50 µM (active). `Nc1c(S(=O)(=O)c2cccs2)c2nc3ccccc3nc2n1Cc1ccccc1`: the EC50 was 20.7 µM (active) in experiment [6], > 120 µM (not active) in experiment [7] and > 120 µM (not active) in [8].

Turning to `N#CCCN(C(=O)COC(=O)CCc1nc(O)c2ccccc2n1)c1ccc(F)cc1`, the IC50 in experiment [9] is > 79 µM (inactive). On the same count and under the same terms, the value for `O=c1c2ccccc2nc(-c2ccc(Cl)c(Cl)c2)n1O` was > 79 µM (inactive); that for `CN(C)S(=O)(=O)n1cc(/C=C(\NC(=O)c2ccccc2F)C(=O)NCCN2CCOCC2)c2ccccc21` was > 79 µM (inactive). As to `Cn1c(=O)n(C)c2cc([N+](=O)[O-])c(N3CCN(CCO)CC3)cc21`, the IC50 in experiment [5] is on record as 7.45 µM (not active). Take `Cc1cccc(/C=C2\Sc3ccc(C(=O)N4CCC(C)CC4)cc3N(C)C2=O)c1`: the EC50 in experiment [1] was 7.54 µM (active); in experiment [2], 20.3 µM (active); in experiment [3] it was 3.11 µM (active). In the case of `COc1ccc(CC(=O)NCC(=O)N/N=C/c2cc(Br)ccc2OC)cc1`, the IC50 in experiment [9] is 34.7 µM (inactive). As for `CC(=O)Nc1ccccc1C(=O)C(=O)Nc1cccc(C(=O)NCC2CCCO2)c1` (stereo not drawn), the IC50 in experiment [5] was 7.39 µM (not active). Same read-out and setting: the value for `COc1ccc(-c2nnc(SC(C)C(=O)Nc3cccc(Cl)c3)o2)cc1` (stereo not drawn) was 11.7 µM (not active).

On to `COc1ccc(OC)c(NC(=O)c2sc3ncnc(N4CCN(c5ccccn5)CC4)c3c2C)c1`, for which the IC50 in experiment [9] was > 79 µM (inactive).

Turning to `CCN1CCN(c2nc(O)c3c(n2)CCCC3)CC1`, the IC50 in [9] was > 79 µM (inactive). Turning to `O=C(c1cc(COc2c(F)cccc2F)on1)N1CCC(c2ccccc2Cl)C1` (stereo not drawn), the IC50 in experiment [5] was 4.48 µM (not active). As for `O=C1CCCc2c1[nH]c1ccc(Br)cc21`, the EC50 in [6] is < 0.1 µM (active); in [7], 86.4 µM (active); in [8] it was 9.02 µM (active). The corresponding values for `NC(=O)c1ccc(NC(=O)COC(=O)C2(c3ccccc3F)CCCC2)cc1` are > 120 µM (not active), > 120 µM (not active) and 17.5 µM (active).

With `Cc1ccc(-c2nnc(NCc3nc4ccccc4[nH]3)c3ccccc23)cc1S(=O)(=O)N1CCOCC1`, in experiment [9], the IC50 is > 79 µM (inactive). As to `Cc1nn(Cc2ccc(Cl)cc2Cl)c(C)c1NC(=O)NC12CC3CC(CC(C3)C1)C2`, the EC50 in [1] is 33.4 µM (active); in [2], 32.7 µM (active); in [3], 7.54 µM (active). As for `CCOc1ccccc1Cn1c(=O)sc2ccccc21`, the IC50 in experiment [5] is 13.1 µM (not active). Regarding `O=C(C1CC12CCCC2)N1CCC(CO)(Cc2ccccc2Cl)CC1` (stereo not drawn), the EC50 in experiment [6] was 19 µM (active); in experiment [7], 120 µM (active); in experiment [8], > 120 µM (not active). As for `CC/N=C1\S/C(=C\c2ccc(-c3cccc(C(=O)O)c3)o2)C(=O)N1CC`, the EC50 in [1] is 10.7 µM (active); in [10], > 195 µM (not active); in experiment [2], > 150 µM (not active); in experiment [3] it was 3.4 µM (active). Consider `Cc1cccc(OCCNc2ccc([N+](=O)[O-])cn2)c1`, for which, in [5], the IC50 was > 50 µM (not active).

Consider `O=C(CN1C(=O)C2CC=CCC2C1=O)Nc1nc(-c2ccc(F)c(F)c2)cs1` (stereo not drawn), for which the IC50 in [9] was > 79 µM (inactive).

As for `Cc1ccc(S(=O)(=O)N2c3ccccc3OCC2C(C)(C)C)cc1` (stereo not drawn), the EC50 was > 150 µM (not active) in experiment [1], > 53 µM (inactive) in experiment [11], 16.9 µM (active) in [2] and 16.4 µM (active) in [3]. For the same compound, the IC50 in experiment [12] is > 47.1 µM (inactive).

`CCOc1ccc(CC(=O)Nc2c(C(N)=O)oc3ccc(Br)cc23)cc1OCC`: in experiment [9], the IC50 was > 79 µM (inactive). Turning to `CC(Sc1nnc(-c2ccc(O)cc2)o1)C(=O)Nc1cccc2ccccc12` (stereo not drawn), the IC50 in experiment [5] is < 0.4 µM (not active). The same measure, in the same setting: the value for `Cc1ccc(C2CCN(C(S)=Nc3cccc(C)c3)C2)cc1` (stereo not drawn) was 9.72 µM (not active). On to `Cc1nc2c(C(=O)Nc3ccc(N4CCCC(O)C4)cc3)snc2c(=O)[nH]1` (stereo not drawn), for which the EC50 in experiment [2] is given as > 150 µM (not active). Consider `CC(C)N(Cc1nc(-c2ccccc2)no1)C(=O)CCCN1C(=O)c2ccccc2C1=O`, for which, in experiment [5], the IC50 is reported as > 50 µM (not active). On the same count and under the same terms, the value for `COc1cccc(C2CC(c3ccccc3OC)n3nc(N)nc3N2)c1` (stereo not drawn) was > 50 µM (not active).

Take `CCCn1c(C2CCCN2c2nc(-c3cccc(Br)c3)cs2)nc2cc(Cl)c(Cl)cc21` (stereo not drawn): the EC50 in [1] was 56.5 µM (active); in [2], > 150 µM (not active); in experiment [3] it was 2.99 µM (active).

As for `COc1ccccc1NC(=O)/C(=C/c1cccs1)NC(=O)c1ccco1`, the IC50 in experiment [5] is reported as 26 µM (not active). With `Fc1ccc(-c2ccc(-c3nn4c(-c5ccco5)nnc4s3)o2)cc1`, in experiment [9], the IC50 is 36.1 µM (inactive). On the same count and under the same terms, the value for `CCOC(=O)N1CCc2c(sc(NC(=O)CN3CCOCC3)c2C(=O)Nc2ccccc2)C1` was 22.8 µM (active). For `C/C(=N\O)[C@H]1CC[C@H]2[C@@H]3CC[C@H]4C/C(=N\O)CC[C@]4(C)[C@H]3C(C)(O)C[C@]12C` (stereo partly drawn), the IC50 in experiment [9] was > 79 µM (inactive).
